Experimental data: patent US6517838B1, “Decorin binding protein essential peptides and methods of use” (The Texas A&M University System, priority 2000, dated 2003)
Several values for one entry are separate records, joined by “and”; a condition that tells them apart may be missing. Equal entries are not always repeated. Where two headings read alike, the source gives them in different places. Ends that are not written are not given here.

How the values were obtained:
[1] = test system: B. burgdorferi strain B31; test: Arthritis assessment, histopathology of hind tibiotarsal joints of immunized infected mice; format: in vivo; conditions: for % Incidence (arthritis): immunized mice, tibiotarsal joint histology; for % Incidence (arthritis) / Mean Arthritis Rating: day 14 post infection; for Mean Arthritis Rating: severity score 0-4 by neutrophil infiltrate
Protocol: (§1) Mice were immunized with recombinant DbpA (SEQ ID 1), P2 (SEQ ID 3), P4 (SEQ ID 5), P5 (SEQ ID 6), P4/P5 (SEQ ID 5/SEQ ID 6), P9 (SEQ ID 10), or the corresponding lysine modified counterparts (P2 Mod, P4 Mod, P5 Mod or P9 Mod) using the immunization schedule established by Hanson (11). Briefly, mice were immunized with 20 μg of protein or peptide in complete Freund's adjuvant (CFA) (Week 1), boosted at week 4 with the same dose in incomplete Freund's adjuvant (IFA) and infected at week 6.
Mice (15 mice/group) were anesthetized with Metofane (methoxyflurane; Pitman-Moore, Mundelein, Ill.) and 10 mice/ group were infected i.d. at the base of the tail with 10^4 Borrelia in 100 μl of media 6 six weeks after the first immunization. The remaining 5 mice/group were tested for a DTH response to recombinant DbpA. Following infection, mice were bled 7 and 14 days postinfection. Serum was collected for antibody analysis and blood cultured for the detection of live spirochetes by inoculating 5 ml of BSK II medium with 50 μl of blood from each infected mouse and cultured for 2 weeks at 34° C. as described above. Also on day 14 postinfection, mice were sacrificed and one hind tibiotarsal joint, heart, bladder, and a 3 mm skin biopsy from the ear were aseptically removed and inoculated into separate tubes containing 6 ml of BSK II medium with antibiotics (50 μg/ml rifampacin and 100 μg/ml phosphomycin (Sigma), and incubated for 2 weeks at 34° C. as described above. Evidence of arthritis was determined by histopathological examination of formalin-fixed hind tibiotarsal joint samples.
Evidence of arthritis was determined by histopathological examination of formalin-fixed hind tibiotarsal joint samples. Tissues for histological examination were embedded in paraffin and stained with hematoxylin and eosin. All sections were examined without knowledge of the vaccination status of the mouse. Arthritis was scored by one of two methods. A positive/negative assessment was used, as well as assignment of an arthritis severity score. Joints were scored according to the levels of infiltrate (neutrophils) as follows: 0, no arthritis, 1, minimal or rare (≦10% tissue involvement); 2, mild (10-20%); […]; and 4, severe (>50%).
A similar trend was also observed for joints examined for arthritis (Table I). DbpA-(SEQ ID 1), P4-(SEQ ID 5), and P5-(SEQ ID 6) immunized mice had the lowest arthritis ratings (0.2, 1.2, and 0.4, respectively) and lowest arthritis incidence (20, 60, and 20%, respectively).

[2] = test system: recombinant DbpA; test: Delayed-type hypersensitivity (DTH) to DbpA, footpad swelling in immunized mice; format: in vivo, B. burgdorferi; conditions: C3H/HeJ mice immunized with 20 μg, challenged with 2 μg recombinant DbpA in footpad, 24 h
Protocol: as §1
Native C3H/HeJ mice immunized with DbpA (SEQ ID 1), P2 (SEQ ID 3), P4 (SEQ ID 5), P5 (SEQ ID 6), P4/P5 (SEQ ID 5/SEQ ID 6), P9 (SEQ ID 10), or the corresponding lysine modified counterparts (P2 Mod, P4 Mod, P5 Mod or P9 Mod) were challenged with 2 μg of recombinant DbpA in PBS (50 μl/footpad) 7 weeks after the initial immunization. All footpads were measured before and 24 h after challenge using a spring-loaded micrometer (Mitutoyo, Tokyo, Japan) as described (23). The mice were anesthetized as described above during footpad measurements and injections. Swelling was determined by subtracting the footpad measurements before challenge from those taken 24 h after challenge.
DTH is an in vivo method of testing T cell-dependent immune responses that are manifested by inflammation at the site of antigenic challenge. Mice immunized with DbpA (SEQ ID 1), P2 (SEQ ID 3), P4 (SEQ ID 5), P5 (SEQ ID 6), P4/P5 (SEQ ID 5/SEQ ID 6) combined, P9 (SEQ ID 10), or the corresponding lysine-modified peptides were challenged in the footpad with 2 μg of recombinant DbpA (SEQ ID 1). Footpad measurements were taken before and after challenge as described above. DbpA (SEQ ID 1)-immunized mice developed a significant footpad swelling of 53.3±3.5 (not shown) compared to mice immunized with adjuvant alone or naive mice receiving only the DbpA (SEQ ID 1) challenge. Peptide-immunized mice, with the exception of P2 (SEQ ID 3), also developed a significant DTH response to DbpA (SEQ ID 1) compared to the lysine-modified controls.

[3] = test system: B. burgdorferi strain B31; test: Joint cultures for spirochetes after infection of immunized mice; format: in vivo; conditions: immunized C3H/HeJ mice, joints 14 days post infection
Protocol: as §1
Low-passage B. burgdorferi strain B31 (passage 5) was used in this study and cultured in BSK II (Barbour-Stoenner-Kelly) medium at 34° C. (22). Bacterial cultures were incubated in CO2-enriched atmosphere in a GasPak chamber (BBL, Baltimore, Md.) containing BBL GasPak Plus envelopes and a GasPak anaerobic indicator (Beckton dickinson, Cockeysville, Md.) until the cells reached log phase. Bacterial counts were determined using dark field microscopy and a Petroff-Hausser chamber.
Mice (15 mice/group) were anesthetized with Metofane (methoxyflurane; Pitman-Moore, Mundelein, Ill.) and 10 mice/ group were infected i.d. at the base of the tail with 10^4 Borrelia in 100 μl of media 6 six weeks after the first immunization. The remaining 5 mice/group were tested for a DTH response to recombinant DbpA. Following infection, mice were bled 7 and 14 days postinfection. […]

[4] = biological target: T1, decorin (Bos taurus, UniProt P21793); test: Inhibition ELISA: decorin attachment to DbpA-coated wells; format: binding, bovine; conditions: 5 μg inhibitor pre-incubated with biotin-conjugated decorin, FIG. 3
T1 construct: Decorin from bovine fetal skin was purified and stored in 4 M guanidine hydrochloride; from tissue; host or cells: decorin from bovine fetal skin; DbpA made in E. coli JM101
Protocol: Immulon-1 microtiter plate wells were coated with 0.4 μg of DbpA in 50 μl of PBS over night at 4° C. The wells were washed and then blocked as described above. During the blocking step, 0.12 μg/ml of biotin-conjugated decorin was pre-incubated at 37° C. with 5 μg of each DbpA-derived peptide or DbpA. After washing, 100 μl of the biotin conjugated decorin/inhibitor mixture was added to the wells and incubated for 1 h. After washing, the wells were incubated with AP-conjugated streptavidin and developed as described above.
(§2) Decorin from bovine fetal skin was purified and stored in 4 M guanidine hydrochloride at −80° C. and dialyzed extensively against PBS before use. Decorin was labeled with digoxigenin-3-O-methylcarbonyl-ε-aminocaproic acid-N-hydroxy-succinimide ester (digoxigenin) (Boehringer Mannheim, Indianapolis. Ind.) according to the manufacturer's instructions and stored at −20° C. To label decorin with biotin, 7.5 mg of NHS-LC-Biotin (sulfosuccinimidyl-6-(biotinamido) hexanoate) (Pierce, Rockford, Ill.) was dissolved in 100 μl of dimethyl sulfoxide and combined with 0.5 mg of decorin and 0.5 ml of 0.2 M sodium borate (pH 8.0) in a total reaction volume of 1 ml.
Confirmation of the critical binding sites in DbpA for decorin and of the biophysical stability of these peptides was tested in an inhibition ELISA. DbpA, peptides P2-P9, chemically modified peptides P2 Mod-P9 Mod, and an irrelevant peptide from the Staphylococcus aureus collagen-binding adhesin, CNA4 (OSKITVDNTKNTIDVTIQG) (SEQ ID 36) were used as inhibitors of decorin attachment to DbpA-coated wells.

[5] = biological target: T2, decorin from bovine fetal skin (bovine), P21793; test: inhibition ELISA: biotin-conjugated decorin pre-incubated with 5 ug peptide, added to DbpA-coated wells
T2 chain: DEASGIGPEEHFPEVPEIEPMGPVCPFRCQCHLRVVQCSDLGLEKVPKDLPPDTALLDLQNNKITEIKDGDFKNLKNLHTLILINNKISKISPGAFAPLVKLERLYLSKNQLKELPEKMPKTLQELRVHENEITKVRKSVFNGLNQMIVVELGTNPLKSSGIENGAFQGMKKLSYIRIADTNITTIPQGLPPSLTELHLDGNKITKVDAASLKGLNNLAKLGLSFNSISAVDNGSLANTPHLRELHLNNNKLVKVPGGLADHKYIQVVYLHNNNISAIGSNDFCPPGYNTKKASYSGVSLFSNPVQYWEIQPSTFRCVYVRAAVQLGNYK

[6] = biological target: T2, decorin from bovine fetal skin …; test: as above
[7] = biological target: T1, decorin; test: Western ligand blot with digoxigenin-labeled decorin; format: binding, bovine; conditions: SDS-PAGE reducing, probed with digoxigenin-labeled decorin
Protocol: as §2
Proteins (purified DbpA, DbpA site-directed mutants and OspC) were subjected to SDS-PAGE (reducing conditions) and probed with rabbit anti-DbpA polyclonal sera (R625) or with digoxigenin-labeled decorin.
Further, the side chains of lysine residues were chemically modified and the binding properties of the resulting protein examined. […] Both forms of DbpA migrated as two bands, monomers at 20 and 21 kDa and dimers at 40 and 42 kDa for DbpA and chemically modified DbpA (K-mod), respectively. The decorin binding activity of the DbpA and lysine-modified DbpA was examined in a Western ligand blot assay (FIG. 6B).

[8] = biological target: T1, decorin; test: Binding of biotin-conjugated decorin to protein-coated microtiter wells; parameters: species or system bovine; conditions: 0.4 μg protein coated, 0.12 μg/ml biotin-decorin, compared to wild-type DbpA
Protocol: as §2
Immulon-1 microtiter plate wells (Dynatech Labs, Chantilly, Va.) were coated with 0.4 μg of DbpA (SEQ ID 1), DbpA mutants and K-mod in 50 μl PBS overnight at 4° C. The wells were washed and then blocked with 200 μl of Super Block (Pierce) for 1 h. After washing, 0.12 μg/ml of biotin-conjugated decorin in 100 μl of Super Block was added to the wells and incubated for 1 h. After washing, 100 μl of a 1:10,000 dilution of alkaline phosphatase (AP)-conjugated streptavidin (1 U/ml) (Boehringer Mannheim) was added and incubated for 1 h. […] The absorbance was determined in a Microplate Reader (Molecular Devices, Menlo Park, Calif.). […]

With “P9 Mod: lysine modified counterpart of P9 (REKLQRVHKKNQDTLKKKNTEDSTAKS; also: chemically modified lysines)” the “% Incidence (arthritis)” value [1] was 80% and the “Mean Arthritis Rating” value [1] was 2.0.

In the case of “P5 Mod: lysine modified counterpart of P5 (AKVRATTVAEKFVIAIEEEATKLKE; also: chemically modified lysines)”, the “% Incidence (arthritis)” value [1] is reported as 100% and the “Mean Arthritis Rating” value [1] is reported as 3.2.

In the case of “P5: synthetic 25 amino acid DbpA peptide that maps to the K82 region (AKVRATTVAEKFVIAIEEEATKLKE) [Peptide P5]”, the “DTH response to DbpA (in words)” value [2] is reported as “significant responses”, the “arthritis incidence and severity (in words)” value ([1]; immunized infected mice) is reported as “lowest” and the “% Incidence (arthritis)” value [1] is reported as 20%. The “Mean Arthritis Rating” value [1] was 0.4, the positive joint cultures [3] was 60% and the “inhibition of decorin attachment to DbpA-coated wells” value (“inhibition of decorin attachment” below) [4] was 92%.

“P4: synthetic 25 amino acid DbpA peptide that maps to the K82 region (DAFKDKKTGSGVSENPFILEAKVRA) [Peptide P4]” was tested, and the “DTH response to DbpA (in words)” value [2] was “response greater than that of control groups but with less intensity”, the “% Incidence (arthritis)” value [1] was 60% and the “Mean Arthritis Rating” value [1] was 1.2. For the same molecule, the “inhibition of decorin attachment” value [4] was 64%.

For “P2: overlapping synthetic 25 amino acid peptide of recombinant DbpA, contains a cystine residue (LLISCGLTGATKIKLESSAKAIVD) [Peptide P2]”, the “DTH response to DbpA (in words)” value [2] was “no response”, the “Mean Arthritis Rating” value [1] was 1.4 and the “inhibition of decorin attachment” value [4] was 44% and 42%.

For “P4 Mod: lysine modified counterpart of P4 (DAFKDKKTGSGVSENPFILEAKVRA; also: chemically modified lysines)”, the “% Incidence (arthritis)” value [1] was 2.0% and the “Mean Arthritis Rating” value [1] was 2.0.

In the case of “P9: synthetic 25 amino acid DbpA peptide containing K163 and K170 (REKLQRVHKKNQDTLKKKNTEDSTAKS) [Peptide P9]”, the “DTH response to DbpA (in words)” value [2] is reported as “response greater than that of control groups but with less intensity”, the “Mean Arthritis Rating” value [1] is reported as 1.25 and the “inhibition of decorin attachment” value [4] is reported as 42% and 43%.

B1: DbpA-derived synthetic peptide P4 (peptide)
peptide: DAFKDKKTGSGVSENPFILEAKVRA
modifications: not checked
For B1, the inhibition of decorin attachment to DbpA-coated wells [5] was 64%.

B2: DbpA-derived synthetic peptide P5 (peptide)
peptide: AKVRATTVAEKFVIAIEEEATKLKE
modifications: not checked
B2 showed an inhibition of decorin attachment to DbpA-coated wells [5] of 92%.

B3: DbpA-derived synthetic peptide P9 (peptide)
peptide: REKLQRVHKKNQDTLKKKNTEDSTAKS
modifications: not checked
Work on B3 yielded an inhibition of decorin attachment to DbpA-coated wells [6] of 43% and an inhibition of decorin attachment to DbpA-coated wells [5] of 42%.

B4: K-mod: DbpA with lysine residues chemically modified by DL-glyceraldehyde and sodium cyanoborohydride (protein)
chain: ATKIKLESSAKAIVDEIDAIKKKAASMGVNFDAFKDKKTGSGVSENPFILEAKVRATTVAEKFVIAIEEEATKLKETGSSGEFSAMYDLMFEVSKPLQELGIQEMTKTVSMAAEENPPTTAQGVLEIAKKMREKLQRVHKKNQDTLKKKNTEDSTAKS
modifications: left off: small tags and cut ends
notes: DbpA with lysine residues chemically modified by DL-glyceraldehyde and sodium cyanoborohydride
In the case of B4, the “decorin binding in Western ligand blot” value [7] is reported as “loss of decorin binding” and the “binding of biotin-conjugated decorin to coated microtiter wells” value [8] is reported as “essentially unable to support the binding of decorin”.
